Assay results as given in patent US20230273203A1, “METHOD FOR DETERMINING FORMULATION OF COMBINATION CONSISTING OF MULTIPLE CANDIDATE SUBSTRATES OF SMELL, TASTE, OR SOMATIC SENSATION AND REPRODUCING SMELL, TASTE, OR SOMATIC SENSATION OF TARGET SUBSTANCE” (Japan Tobacco Inc., priority 2020, published 2023).

Legend:
OR9 = experiment: Olfactory receptor response measurement, CRE-luciferase reporter in HEK-Olf cells; assay type: cell-based, human; conditions: ◯ = receptor responds to the fragrance; luminescence after 3 hours
OR3 = experiment: as above; assay type: cell-based, human; conditions: ◯ = receptor responds to the fragrance; luminescence after 3 hours
OR8 = experiment: as above; assay type: cell-based, human; conditions: ◯ = receptor responds to the fragrance; luminescence after 3 hours
OR10 = experiment: as above; assay type: cell-based, human; conditions: ◯ = receptor responds to the fragrance; luminescence after 3 hours
Source text: (§1) An olfactory receptor gene library (pFN21KSPc HaloTag-OR) prepared by inserting 351 human olfactory receptor genes obtained from a human cDNA library into the pFN21KSPc HaloTag vector was purchased from Kazusa Genome Technologies. Of the 351 types, olfactory receptors OR1A1, OR2B11, and the like were polymorphisms known to show low responses to known agonists, such that the olfactory receptors were modified into polymorphisms with high responsiveness for use in the subsequent test (Joel D. Mainland, et al., Nat Neurosci. 2014; 17(1): p. 114-120).
The cell line HEK-Olf obtained in Example 1 was prepared in DMEM medium (Thermo Fisher) and then seeded in a 96-well plate (Corning) at 1×10^4 cells/well. Subsequently, pFN21KSPc HaloTag-OR and pGL4.29[luc2P/CRE/Hygro] […]
(§2) Each olfactory receptor expressing HEK-Olf obtained above was cultured for 24 hours at 37° C. under 5% CO2; then the medium was removed, and test compounds (candidate substances) prepared appropriately in DMEM medium were added in 50 μL aliquots. […] After 3 hours of reaction at 37° C. under 5% CO2, responses of the olfactory receptors were obtained by luminescence measurement using ONE-Glo (trademark) Luciferase Assay kit (Promega).
(§3) The response intensity R of an olfactory receptor at each concentration was calculated using the luminescence intensity (RLU) obtained in the measurement, based on formula (6) below: […]

OR7 = experiment: as above; assay type: cell-based, human; conditions: ◯ = receptor responds to the fragrance; luminescence after 3 hours
[1] = Sensory evaluation of similarity in odor quality to coumarin (VAS); assay type: in vivo, human; conditions: headspace aroma, panel of five trained experts, samples in propylene glycol at Table 2 concentrations; FIG. 4
Method: In this example, similarity in odor quality between coumarin and the coumarin reconstitution fragrance obtained in Example 3 was verified by sensory evaluation. In the sensory evaluation, the verification was performed by a panel of five trained experts. The similarity in odor was obtained by evaluating the similarity between the headspace aromas of coumarin presented as a reference and each evaluation sample presented blindly, using a Visual Analog Scale (VAS).

OR2 = experiment: Olfactory receptor response measurement, CRE-luciferase reporter in HEK-Olf cells; assay type: cell-based, human; conditions: ◯ = receptor responds to the fragrance; luminescence after 3 hours
Source text: as §1
(§4) The cell line HEK-Olf obtained in Example 1 was prepared in DMEM medium (Thermo Fisher) and then seeded in a 96-well plate (Corning) at 1×10^4 cells/well. Subsequently, pFN21KSPc HaloTag-OR and pGL4.29[luc2P/CRE/Hygro] Vector (Promega) were introduced into the HEK-Olf with ViaFect (trademark) Transfection Reagent (Promega). At this time, pFN21KSPc HaloTag-OR and pGL4.29[luc2P/CRE/Hygro] Vector were prepared to give 70 ng/well and 30 ng/well, respectively. Using each olfactory receptor expressing HEK-Olf thus constructed, measurement of responses of the olfactory receptors was performed as follows.
(§5) Each olfactory receptor expressing HEK-Olf obtained above was cultured for 24 hours at 37° C. under 5% CO2; then the medium was removed, and test compounds (candidate substances) prepared appropriately in DMEM medium were added in 50 μL aliquots. DMEM medium containing no test compound was added to negative control wells, and forskolin adjusted to 3 μM was added to positive control wells. After 3 hours of reaction at 37° C. under 5% CO2, responses of the olfactory receptors were obtained by luminescence measurement using ONE-Glo (trademark) Luciferase Assay kit (Promega).
as §3
(§6) Furthermore, using the curve fitting software XLFit (IDBS), the maximum response intensity and EC50 of the dose response curve were derived.

OR1 = experiment: as above; assay type: cell-based, human; conditions: ◯ = receptor responds to the fragrance; luminescence after 3 hours
Source text: as §1, §4, §5, §3, §6

OR5 = experiment: as above; assay type: cell-based, human; conditions: ◯ = receptor responds to the fragrance; luminescence after 3 hours
Source text: as §1, §4, §5, §3, §6

OR4 = experiment: as above; assay type: cell-based, human; conditions: ◯ = receptor responds to the fragrance; luminescence after 3 hours
Source text: as §1, §4, §5, §3, §6

OR6 = experiment: as above; assay type: cell-based, human; conditions: ◯ = receptor responds to the fragrance; luminescence after 3 hours
Source text: as §1, §4, §5, §3, §6

[2] = test system: 351 human olfactory receptors; experiment: Response screen of 351 human olfactory receptors; assay type: cell-based; conditions: out of 351 human olfactory receptors; all responders class II
Source text: as §1, with “114-120). […]” for “114-120).”
as §2, §3
Based on the above-described procedure, 351 human olfactory receptors were measured for responses to coumarin as a fragrance. […]

Structure (SMILES): CCCCC(=O)OCC [Ethyl Valerate, ethyl valerate]
- response of olfactory receptor OR9 to the fragrance (OR9): ◯

Structure (SMILES): CC(C)[C@@H]1CC[C@@H](C)CC1=O [Menthone, menthone]
- response of olfactory receptor OR3 to the fragrance (OR3): ◯

Structure (SMILES): C=C(C)[C@@H]1CCC2=CC(=O)C[C@@H](C)[C@]2(C)C1 [Nootkatone, nootkatone]
- response of olfactory receptor OR8 to the fragrance (OR8): ◯
- response of olfactory receptor OR10 to the fragrance (OR10): ◯
- response of olfactory receptor OR9 to the fragrance (OR9): ◯
- response of olfactory receptor OR7 to the fragrance (OR7): ◯

Structure (SMILES): O=Cc1ccc2c(c1)OCO2 [Piperonal, piperonal]
- similarity in odor quality to coumarin (VAS) [1]: low similarity
- response of olfactory receptor OR2 to the fragrance (OR2): ◯
- response of olfactory receptor OR1 to the fragrance (OR1): ◯
- response of olfactory receptor OR5 to the fragrance (OR5): ◯
- response of olfactory receptor OR4 to the fragrance (OR4): ◯
- response of olfactory receptor OR6 to the fragrance (OR6): ◯

Structure (SMILES): O=c1ccc2ccccc2o1 [coumarin, reference compound]
- response of olfactory receptor OR2 to the fragrance (OR2): confirmed to respond
- response of olfactory receptor OR1 to the fragrance (OR1): confirmed to respond
- response of olfactory receptor OR5 to the fragrance (OR5): confirmed to respond
- response of olfactory receptor OR4 to the fragrance (OR4): confirmed to respond
- response of olfactory receptor OR6 to the fragrance (OR6): confirmed to respond
- number of olfactory receptors showing dose-dependent responses [2]: six
- response of olfactory receptor OR3 to the fragrance (OR3): confirmed to respond

Structure (SMILES): O=C(O)C=Cc1ccccc1O [o-Hydroxycinnamic Acid, o-hydroxycinnamic acid]
- response of olfactory receptor OR8 to the fragrance (OR8): ◯
- response of olfactory receptor OR9 to the fragrance (OR9): ◯
- response of olfactory receptor OR7 to the fragrance (OR7): ◯

Structure (SMILES): CCCC1CCC(=O)O1 (stereo not shown) [γ-Heptalactone, γ-heptalactone]
- response of olfactory receptor OR1 to the fragrance (OR1): ◯
- response of olfactory receptor OR5 to the fragrance (OR5): ◯
- response of olfactory receptor OR3 to the fragrance (OR3): ◯
